Experiments:
[1] = system: tumor cells; set-up: method as in PMID 19729306, PMID 20207139, PMID 25091930; conditions: result in words; cited from earlier work
[2] = molecular target: T1, Pin1 (Homo sapiens, UniProt Q13526); conditions: known Pin1 inhibitors, Figure 1; cited from earlier work
T1 construct: purchased Sino Biological Inc., Beijing, China

[3] = set-up: method as in PMID 29170140; conditions: in humans; cited from earlier work
[4] = molecular target: T1, Pin1; assay: Pin1 inhibition, protease-coupled assay; type: biochemical; conditions: Pin1, compound at 10 μM, 10 °C
Experimental: To investigate the Pin1 inhibitory potency of all synthesized compounds, the inhibition ratio at 10 μM or IC50 of all synthesized compounds was determined using protease-coupled assay.
Pin1 inhibitory activities were measured at 10 °C by protease-coupled assay as reported previous. Suc-Ala-Glu-cis-Pro-Phe-4-nitroaniline (Bachem, Bubendorf, Switzerland) in 0.47 mol/L, LiCl/trifluoroethanol was used as the substrate. The assay buffer (860 μL of 35 mM HERES at pH 7.8), Pin1 (20 μL, Bought from Sino Biological Inc., Beijing, China) and target compounds (10 μL of varying comcentrations in DMSO) were pre-equilibtated in the cuvette at 10 °C for 30 min. Then, 150 uL of ice-cooled chymotrypsin (60 mg/mL in 0.001 M/HCl) was added and mixed immediately. Additional substrate (40 μL) was added to start the assay and the reaction was monitored by absorbance at 390 nm for 90 s. For each compound, four concentrations (10 μM, 3.3 μM, 1.1 μM, 0.37 μM) were chosen, and the assay was performed in duplicate. The data was analyzed by Graphpad Prism 6.0.

[5] = system: PC-3 cells; assay: In vitro anti-proliferative MTT assay; type: cell-based, human; conditions: for GI50: Homo sapiens, PC-3 cells, MTT, 96 h
Experimental: As for Pin1 was overexpressed in human prostate cancer cells, the antiproliferative activity of these benzimidazole derivatives against PC-3 cells were further evaluated by MTT assay. Meanwhile, the polar surface area (PSA) of these compounds was calculated under the optimal conformation since PSA is the key indicator of membrane permeability.
The tested cells were plated in 96-well microtiter plates with a density of 2,000 cells/well and incubated in a humidified atmosphere with 5% CO2 at 37 °C for 24 h. The cells were then exposed to tested compounds of different concentrations in triplicate. After incubated for 96 h, 50 μL of 3-(4,5-dimethylthiazol-2-yl)-2,5-diphenyltetrazolium bromide (MTT) solution (2 mg/mL) was added to each well and incubated for an additional 4 h. Then the suspernatant was discarded and the fromazan was dissolved in 200 μL of dimethyl sulfoxide (DMSO). The plate was oscillated subtly at room temperature for 10 min before the absorbance was measured at 570 nm by a microplate reader. Cell inhibitory ratio was calculated with the following formula:Inhibitory Rate (%) = [(Acontrol − Atreated)/Acontrol] × 100%(1)
The GI50 was determined as the concentration that caused half inhibition of cell proliferation. All experiments were performed three times independently, and the results were reported presented as the mean.

T1 sequence (Q13526 whole entry): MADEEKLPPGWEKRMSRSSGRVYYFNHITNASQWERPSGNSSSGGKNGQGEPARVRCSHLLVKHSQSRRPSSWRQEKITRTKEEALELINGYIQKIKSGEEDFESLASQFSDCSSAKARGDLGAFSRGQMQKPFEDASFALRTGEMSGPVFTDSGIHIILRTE

SMILES | melting point [°C] | inhibition at 10 µM [4] [%] | GI50 [5] [µM] | further results
O=Cc1nc2ccccc2[nH]1 [Compound 2] | – | – | – | antiproliferative activities against tumor cells [1]: did not exhibit antiproliferative activities
Nc1nc(OCc2ccc(CNC(=O)C(F)(F)F)cc2)c2nc[nH]c2n1 [API-1] | – | – | – | IC50 [2]: 0.07 µM
CC1=C(/C=C/C(C)=C/C=C/C(C)=C/C(=O)O)C(C)(C)CCC1 [ATRA, all-trans retinoic acid] | – | – | – | half-life [3]: 45 min
O=C(CCn1c(-c2nc(C(=O)O)cs2)nc2ccccc21)Nc1ccccc1Br [Compound 13c, 2-(1-(3-((2-Bbromophenyl)amino)-3-oxopropyl)-1H-benzo[d]imidazol-2-yl)thiazole-4-carboxylic acid] | 186 to 188 | 79 | > 50 | –
Cc1ccc(NC(=O)CCn2c(-c3nc(C(=O)O)cs3)nc3ccccc32)cc1F [Compound 13j, 2-(1-(3-((3-Fluoro-4-methylphenyl)amino)-3-oxopropyl)-1H-benzo[d]imidazol-2-yl)thiazole-4-carboxylic acid] | 204 to 206 | 72 | > 50 | –
O=C(O)/C=C/c1nc2ccccc2n1CCC(=O)N1CCOCC1 [Compound 6b, (E)-3-(1-(3-Morpholino-3-oxopropyl)-1H-benzo[d]imidazol-2-yl) acrylic acid] | 207 to 209 | 27 | > 50 | –
Cc1ccc(NC(=O)CCn2c(CCC(=O)O)nc3ccccc32)cc1 [Compound 7a, 3-(1-(3-Oxo-3-(p-tolylamino)propyl)-1H-benzo[d]imidazol-2-yl)propanoic acid] | 66 to 68 | 60 | > 50 | –
Cc1cc(C)c(NC(=O)CCn2c(CCC(=O)O)nc3ccccc32)c(C)c1 [Compound 7c, 3-(1-(3-(Mesitylamino)-3-oxopropyl)-1H-benzo[d]imidazol-2-yl)propanoic acid] | 222 to 224 | 60 | 28.6 | antiproliferative activity against human prostate cancer PC-3 cells ([5]; result in words): moderate antiproliferative activity
